Data taken from publication PMC9851200, “Multiparameter phenotypic screening for endogenous TFEB and TFE3 translocation identifies novel chemical series modulating lysosome function” (Autophagy, 2022).

Legend:
Assay type in all cases: binding
[1] = biological target: kinases (KINOMEscan panel) (Homo sapiens, UniProt Q9UPE1); details: SRPK3; NEW KINOMEscan
[2] = biological target: kinases (KINOMEscan panel) (Homo sapiens, UniProt P24723); details: kinase PRKCH; NEW KINOMEscan
[3] = biological target: kinases (KINOMEscan panel) (Homo sapiens, UniProt P22694); details: PRKACB; NEW KINOMEscan
[4] = biological target: T1, kinases (KINOMEscan panel) (Homo sapiens, UniProt P54762); details: kinase EPHB1; NEW KINOMEscan
T1 sequence (P54762 18-984): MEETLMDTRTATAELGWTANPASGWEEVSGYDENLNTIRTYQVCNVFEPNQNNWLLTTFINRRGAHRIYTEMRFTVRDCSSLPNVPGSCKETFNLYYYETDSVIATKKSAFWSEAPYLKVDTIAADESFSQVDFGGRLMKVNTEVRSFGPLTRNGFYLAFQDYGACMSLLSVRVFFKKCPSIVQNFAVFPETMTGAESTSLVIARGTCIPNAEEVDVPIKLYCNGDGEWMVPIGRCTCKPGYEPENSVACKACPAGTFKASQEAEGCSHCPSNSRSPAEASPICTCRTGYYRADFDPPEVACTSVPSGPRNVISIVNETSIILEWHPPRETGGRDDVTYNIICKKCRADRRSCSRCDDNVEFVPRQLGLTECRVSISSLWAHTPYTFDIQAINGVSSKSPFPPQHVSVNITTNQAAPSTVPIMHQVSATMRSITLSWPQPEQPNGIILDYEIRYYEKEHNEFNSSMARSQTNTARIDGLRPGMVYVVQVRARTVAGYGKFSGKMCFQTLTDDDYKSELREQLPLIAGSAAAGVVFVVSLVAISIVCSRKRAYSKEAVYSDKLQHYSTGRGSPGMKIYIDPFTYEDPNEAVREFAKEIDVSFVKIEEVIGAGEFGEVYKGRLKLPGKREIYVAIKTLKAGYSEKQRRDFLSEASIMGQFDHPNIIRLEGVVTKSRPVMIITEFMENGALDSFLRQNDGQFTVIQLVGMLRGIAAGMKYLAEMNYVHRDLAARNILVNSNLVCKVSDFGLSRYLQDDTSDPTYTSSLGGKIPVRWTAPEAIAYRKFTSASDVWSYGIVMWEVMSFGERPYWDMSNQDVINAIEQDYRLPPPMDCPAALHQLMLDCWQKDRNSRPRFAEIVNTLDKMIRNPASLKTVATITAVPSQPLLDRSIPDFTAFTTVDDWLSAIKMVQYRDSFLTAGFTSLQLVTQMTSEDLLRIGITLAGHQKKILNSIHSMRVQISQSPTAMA

[5] = biological target: kinases (KINOMEscan panel) (Homo sapiens, UniProt P11802); details: NEW KINOMEscan; for KINOMEscan CDK4-cyclinD3: kinase CDK4-cyclinD3; for KINOMEscan CDK4: kinase CDK4
[6] = biological target: kinases (KINOMEscan panel) (Homo sapiens, UniProt P00533, L858R); details: kinase EGFR(L858R); NEW KINOMEscan
[7] = biological target: kinases (KINOMEscan panel) (Homo sapiens, UniProt Q9BYT3); details: kinase STK33; NEW KINOMEscan
[8] = biological target: kinases (KINOMEscan panel) (Homo sapiens, UniProt Q15303); details: kinase ERBB4; NEW KINOMEscan
[9] = biological target: kinases (KINOMEscan panel) (Homo sapiens, UniProt Q15759)
[10] = biological target: kinases (KINOMEscan panel) (Homo sapiens, UniProt Q8TDR2); details: STK35; NEW KINOMEscan
[11] = biological target: kinases (KINOMEscan panel) (Homo sapiens, UniProt P07332); details: kinase FES; NEW KINOMEscan
[12] = biological target: kinases (KINOMEscan panel) (Homo sapiens, UniProt P00519); details: NEW KINOMEscan
[13] = biological target: T2, kinases (KINOMEscan panel) (Homo sapiens, UniProt Q9BRS2); details: RIOK1; NEW KINOMEscan
T2 sequence (Q9BRS2 1-568): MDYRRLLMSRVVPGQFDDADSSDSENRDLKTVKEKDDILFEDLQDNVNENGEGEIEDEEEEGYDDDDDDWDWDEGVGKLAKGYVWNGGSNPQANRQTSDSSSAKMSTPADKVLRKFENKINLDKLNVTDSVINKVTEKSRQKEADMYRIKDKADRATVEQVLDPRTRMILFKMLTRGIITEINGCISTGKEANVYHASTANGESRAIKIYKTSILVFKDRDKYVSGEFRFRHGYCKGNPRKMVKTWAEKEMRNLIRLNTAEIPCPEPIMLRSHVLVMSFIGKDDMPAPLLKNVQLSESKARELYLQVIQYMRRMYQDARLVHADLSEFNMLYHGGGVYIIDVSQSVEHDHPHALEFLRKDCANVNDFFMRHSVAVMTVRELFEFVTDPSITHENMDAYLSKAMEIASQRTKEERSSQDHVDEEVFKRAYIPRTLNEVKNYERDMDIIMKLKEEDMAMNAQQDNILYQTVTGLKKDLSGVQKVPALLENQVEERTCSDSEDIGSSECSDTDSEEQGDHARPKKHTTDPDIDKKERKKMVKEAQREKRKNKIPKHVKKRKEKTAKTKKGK

[14] = biological target: kinases (KINOMEscan panel) (Homo sapiens, UniProt Q9HBH9); details: MKNK2; NEW KINOMEscan
[15] = biological target: kinases (KINOMEscan panel) (Homo sapiens, UniProt P42336, M1043I); details: NEW KINOMEscan
[16] = biological target: kinases (KINOMEscan panel) (Homo sapiens, UniProt P42336); details: kinase PIK3CA; NEW KINOMEscan
Chain of kinases (KINOMEscan panel) (Homo sapiens, UniProt P42336) (P42336 whole entry): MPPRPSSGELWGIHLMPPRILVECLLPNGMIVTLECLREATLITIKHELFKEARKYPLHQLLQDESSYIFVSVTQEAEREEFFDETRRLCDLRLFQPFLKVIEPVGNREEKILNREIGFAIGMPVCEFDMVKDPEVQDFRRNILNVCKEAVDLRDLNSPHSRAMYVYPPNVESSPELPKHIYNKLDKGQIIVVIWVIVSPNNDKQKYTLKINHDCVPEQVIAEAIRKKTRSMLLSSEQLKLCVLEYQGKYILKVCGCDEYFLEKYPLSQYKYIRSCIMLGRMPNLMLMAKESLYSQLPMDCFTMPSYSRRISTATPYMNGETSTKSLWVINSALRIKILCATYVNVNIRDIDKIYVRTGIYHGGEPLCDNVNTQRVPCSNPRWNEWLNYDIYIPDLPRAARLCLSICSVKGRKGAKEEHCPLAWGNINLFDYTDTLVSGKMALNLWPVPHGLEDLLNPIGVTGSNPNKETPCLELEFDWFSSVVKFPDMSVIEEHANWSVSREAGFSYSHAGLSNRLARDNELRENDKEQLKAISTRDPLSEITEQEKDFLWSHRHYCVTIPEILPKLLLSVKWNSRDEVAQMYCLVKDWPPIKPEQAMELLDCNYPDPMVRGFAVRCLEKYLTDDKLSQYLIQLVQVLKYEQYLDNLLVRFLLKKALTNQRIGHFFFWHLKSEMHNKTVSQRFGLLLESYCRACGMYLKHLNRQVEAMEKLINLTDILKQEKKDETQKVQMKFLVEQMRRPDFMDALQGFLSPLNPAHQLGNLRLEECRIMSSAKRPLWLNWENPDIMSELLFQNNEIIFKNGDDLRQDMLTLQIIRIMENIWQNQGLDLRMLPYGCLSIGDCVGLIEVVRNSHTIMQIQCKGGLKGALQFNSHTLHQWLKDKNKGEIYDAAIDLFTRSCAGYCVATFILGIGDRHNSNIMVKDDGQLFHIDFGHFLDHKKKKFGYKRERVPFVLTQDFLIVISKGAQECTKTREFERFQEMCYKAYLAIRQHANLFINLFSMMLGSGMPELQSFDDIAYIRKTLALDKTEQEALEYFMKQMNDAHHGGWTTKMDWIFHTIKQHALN

Chain of kinases (KINOMEscan panel) (Homo sapiens, UniProt P00519) (P00519 whole entry): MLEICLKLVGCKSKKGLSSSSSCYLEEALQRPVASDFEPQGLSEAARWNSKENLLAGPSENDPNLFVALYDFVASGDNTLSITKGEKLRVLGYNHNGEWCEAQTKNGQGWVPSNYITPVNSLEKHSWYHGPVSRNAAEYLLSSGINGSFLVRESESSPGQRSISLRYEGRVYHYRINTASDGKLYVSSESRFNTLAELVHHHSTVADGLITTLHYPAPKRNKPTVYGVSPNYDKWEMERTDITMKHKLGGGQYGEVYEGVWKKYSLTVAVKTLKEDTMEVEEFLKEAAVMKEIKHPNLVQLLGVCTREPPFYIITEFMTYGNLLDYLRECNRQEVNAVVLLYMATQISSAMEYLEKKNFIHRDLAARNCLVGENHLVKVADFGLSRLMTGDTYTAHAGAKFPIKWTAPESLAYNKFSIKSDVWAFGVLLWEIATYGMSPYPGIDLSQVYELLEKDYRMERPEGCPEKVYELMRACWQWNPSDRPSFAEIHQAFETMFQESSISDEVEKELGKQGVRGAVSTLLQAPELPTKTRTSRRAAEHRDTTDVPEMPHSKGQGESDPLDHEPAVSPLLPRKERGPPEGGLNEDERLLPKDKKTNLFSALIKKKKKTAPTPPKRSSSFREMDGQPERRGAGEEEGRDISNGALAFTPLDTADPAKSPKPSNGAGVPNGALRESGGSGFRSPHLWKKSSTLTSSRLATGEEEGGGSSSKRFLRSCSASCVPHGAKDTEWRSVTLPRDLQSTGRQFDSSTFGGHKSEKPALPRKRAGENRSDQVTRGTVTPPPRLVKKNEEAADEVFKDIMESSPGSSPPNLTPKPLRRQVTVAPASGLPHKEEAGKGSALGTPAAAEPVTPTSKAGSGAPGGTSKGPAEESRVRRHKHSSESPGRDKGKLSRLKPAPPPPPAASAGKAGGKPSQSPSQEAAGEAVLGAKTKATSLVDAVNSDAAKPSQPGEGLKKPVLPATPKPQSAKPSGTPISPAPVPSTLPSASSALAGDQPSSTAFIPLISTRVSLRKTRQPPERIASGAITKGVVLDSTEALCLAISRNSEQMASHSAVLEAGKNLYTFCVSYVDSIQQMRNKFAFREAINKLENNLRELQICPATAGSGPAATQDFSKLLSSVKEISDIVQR
Chain of kinases (KINOMEscan panel) (Homo sapiens, UniProt P11802) (P11802 whole entry): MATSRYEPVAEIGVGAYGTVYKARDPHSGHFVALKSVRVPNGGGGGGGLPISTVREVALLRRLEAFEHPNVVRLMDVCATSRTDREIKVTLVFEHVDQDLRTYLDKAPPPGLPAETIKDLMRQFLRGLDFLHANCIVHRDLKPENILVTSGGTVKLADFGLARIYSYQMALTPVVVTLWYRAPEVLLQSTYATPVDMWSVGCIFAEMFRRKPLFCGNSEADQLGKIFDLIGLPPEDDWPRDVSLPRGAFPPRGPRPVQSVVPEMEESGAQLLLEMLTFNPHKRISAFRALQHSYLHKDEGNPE
Chain of kinases (KINOMEscan panel) (Homo sapiens, UniProt Q9HBH9) (Q9HBH9 whole entry): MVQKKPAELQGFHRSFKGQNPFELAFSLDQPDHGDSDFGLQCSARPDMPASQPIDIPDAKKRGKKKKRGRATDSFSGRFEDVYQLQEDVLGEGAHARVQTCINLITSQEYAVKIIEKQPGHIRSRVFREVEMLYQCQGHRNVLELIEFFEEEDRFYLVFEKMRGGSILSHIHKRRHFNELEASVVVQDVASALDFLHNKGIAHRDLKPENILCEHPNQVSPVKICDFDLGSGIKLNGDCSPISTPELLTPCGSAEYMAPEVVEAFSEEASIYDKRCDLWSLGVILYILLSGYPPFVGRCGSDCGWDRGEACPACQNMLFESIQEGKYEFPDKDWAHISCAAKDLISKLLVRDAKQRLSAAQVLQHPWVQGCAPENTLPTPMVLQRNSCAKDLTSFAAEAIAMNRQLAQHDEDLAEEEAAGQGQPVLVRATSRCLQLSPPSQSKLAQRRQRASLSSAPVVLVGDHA
Chain of kinases (KINOMEscan panel) (Homo sapiens, UniProt P07332) (P07332 whole entry): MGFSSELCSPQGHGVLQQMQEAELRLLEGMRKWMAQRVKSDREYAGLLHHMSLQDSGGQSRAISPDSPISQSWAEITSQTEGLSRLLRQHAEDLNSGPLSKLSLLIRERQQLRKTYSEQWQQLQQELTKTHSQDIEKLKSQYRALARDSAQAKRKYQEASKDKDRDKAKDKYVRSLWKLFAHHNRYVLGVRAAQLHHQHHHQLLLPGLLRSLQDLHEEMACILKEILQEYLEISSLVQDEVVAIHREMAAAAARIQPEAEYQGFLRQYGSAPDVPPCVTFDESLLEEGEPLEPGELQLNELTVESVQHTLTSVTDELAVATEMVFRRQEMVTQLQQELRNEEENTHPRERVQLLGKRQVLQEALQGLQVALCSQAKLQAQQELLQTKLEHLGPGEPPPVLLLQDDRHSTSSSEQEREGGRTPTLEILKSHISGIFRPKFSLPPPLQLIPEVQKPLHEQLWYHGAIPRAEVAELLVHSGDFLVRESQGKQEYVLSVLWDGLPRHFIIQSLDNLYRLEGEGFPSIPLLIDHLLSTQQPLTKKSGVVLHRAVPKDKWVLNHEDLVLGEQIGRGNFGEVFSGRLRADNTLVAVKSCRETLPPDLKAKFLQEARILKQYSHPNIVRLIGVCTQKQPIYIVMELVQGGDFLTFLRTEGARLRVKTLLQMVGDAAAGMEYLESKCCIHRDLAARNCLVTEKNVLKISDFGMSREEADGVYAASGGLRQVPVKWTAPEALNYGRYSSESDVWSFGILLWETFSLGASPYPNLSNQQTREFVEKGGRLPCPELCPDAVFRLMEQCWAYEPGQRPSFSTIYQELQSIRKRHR
Chain of kinases (KINOMEscan panel) (Homo sapiens, UniProt Q8TDR2) (Q8TDR2 whole entry): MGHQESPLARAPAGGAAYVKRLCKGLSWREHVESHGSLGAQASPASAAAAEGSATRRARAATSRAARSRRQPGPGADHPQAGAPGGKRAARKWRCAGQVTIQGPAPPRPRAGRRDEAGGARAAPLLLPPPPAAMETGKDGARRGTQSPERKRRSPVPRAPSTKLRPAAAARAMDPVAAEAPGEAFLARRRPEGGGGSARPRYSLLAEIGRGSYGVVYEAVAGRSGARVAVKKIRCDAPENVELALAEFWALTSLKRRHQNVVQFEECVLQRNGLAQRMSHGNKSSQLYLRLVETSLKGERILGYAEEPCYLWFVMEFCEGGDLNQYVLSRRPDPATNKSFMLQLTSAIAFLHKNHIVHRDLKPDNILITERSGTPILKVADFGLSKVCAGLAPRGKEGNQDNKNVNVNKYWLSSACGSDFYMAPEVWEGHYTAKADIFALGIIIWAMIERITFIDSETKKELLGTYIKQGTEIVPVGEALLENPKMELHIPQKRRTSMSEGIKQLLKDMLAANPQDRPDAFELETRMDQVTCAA
Chain of kinases (KINOMEscan panel) (Homo sapiens, UniProt Q9BYT3) (Q9BYT3 whole entry): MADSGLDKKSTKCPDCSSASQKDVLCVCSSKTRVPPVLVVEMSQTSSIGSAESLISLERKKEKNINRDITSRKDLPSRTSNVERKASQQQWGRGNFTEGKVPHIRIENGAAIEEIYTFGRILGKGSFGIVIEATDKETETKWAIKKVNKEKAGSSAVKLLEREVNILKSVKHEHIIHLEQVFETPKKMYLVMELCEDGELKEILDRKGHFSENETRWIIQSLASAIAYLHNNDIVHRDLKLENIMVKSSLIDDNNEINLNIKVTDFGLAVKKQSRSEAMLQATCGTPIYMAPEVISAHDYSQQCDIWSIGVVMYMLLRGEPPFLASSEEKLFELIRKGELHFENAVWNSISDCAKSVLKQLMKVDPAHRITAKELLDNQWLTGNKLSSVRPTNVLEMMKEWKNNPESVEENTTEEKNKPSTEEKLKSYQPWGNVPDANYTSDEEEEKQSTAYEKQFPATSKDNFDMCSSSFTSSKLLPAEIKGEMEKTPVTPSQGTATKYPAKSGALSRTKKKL
Chain of kinases (KINOMEscan panel) (Homo sapiens, UniProt P42336, M1043I) (P42336 whole entry M1043I): as the sequence (P42336 whole entry) above, with M1043I counted along it

Cc1cccc(-c2nc(Nc3ccc4nn(C)cc4c3)c3ccccc3n2)n1 [NK167]
KINOMEscan SRPK3 [1]: 0
KINOMEscan PRKCH [2]: 21
KINOMEscan PRKACB [3]: 1
KINOMEscan EPHB1 [4]: 0
KINOMEscan CDK4-cyclinD1 (???) CCND1 [5]: 10
KINOMEscan CDK4-cyclinD3 [5]: 0
KINOMEscan CDK4 [5]: 0
KINOMEscan EGFR(L858R) [6]: 0
KINOMEscan STK33 [7]: 0
KINOMEscan ERBB4 [8]: 0
KINOMEscan MAPK11/p38-beta [9]: 12
KINOMEscan STK35 [10]: 0
KINOMEscan FES [11]: 0
KINOMEscan ABL1-nonphosphorylated [12]: 0
KINOMEscan ABL1-phosphorylated [12]: 41
KINOMEscan RIOK1 [13]: 1
KINOMEscan MKNK2 [14]: 0
KINOMEscan PIK3CA(M1043I) [15]: 17
KINOMEscan PIK3CA [16]: 0

Cc1cccc(-c2nc(N(C)c3ccc4ncsc4c3)c3ccccc3n2)n1 [NK-161]
KINOMEscan SRPK3 [1]: 1
KINOMEscan PRKCH [2]: 8
KINOMEscan PRKACB [3]: 6
KINOMEscan EPHB1 [4]: 14
KINOMEscan CDK4-cyclinD1 (???) CCND1 [5]: 18
KINOMEscan CDK4-cyclinD3 [5]: 0
KINOMEscan CDK4 [5]: 0
KINOMEscan EGFR(L858R) [6]: 2
KINOMEscan STK33 [7]: 0
KINOMEscan ERBB4 [8]: 0
KINOMEscan MAPK11/p38-beta [9]: 1
KINOMEscan STK35 [10]: 0
KINOMEscan FES [11]: 4
KINOMEscan ABL1-nonphosphorylated [12]: 0
KINOMEscan ABL1-phosphorylated [12]: 29
KINOMEscan RIOK1 [13]: 0
KINOMEscan MKNK2 [14]: 0
KINOMEscan PIK3CA(M1043I) [15]: 10
KINOMEscan PIK3CA [16]: 0
